The record followed here is PubChem BioAssay (NCI).

Values joined by “and” are separate entries in the source; they are usually repeats but may differ in a detail not shown here. Identical values can stand only once.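 Step 1: Grow cells in 96-well plates. Step 2: Expose to compound for 48 hours at 5 concentrations. Step 3: Interpolate endpoints linearly; if unreached, use highest concentration. The concentration for 50% growth inhibition is given as GI50. TGI marks complete inhibition of growth.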 A value given as a limit tells only on which side of the number the result lay.

Test systems include NCI-H23 lung; SK-MEL-2 melanoma; SR leukemia; SK-MEL-28 melanoma; SNB-75 CNS; HOP-92 NSCLC; SN12C renal; UO-31 renal; ACHN renal; HCT-116 colon.
Test in all cases: NCI tumour cell line growth inhibition, 48 h

With `CN1CCN(c2nc(NCCCNc3ccnc4cc(Cl)ccc34)c3ccccc3n2)CC1`, the GI50 was 10.6 µM in the test with NCI-H23 lung; 3.18 µM in the test on SK-MEL-2 melanoma; 1.74 µM in the test with SR leukemia; 2.17 µM in the test with SK-MEL-28 melanoma; 5.45 µM in the test with SNB-75 CNS; 2.07 µM in the test with HOP-92 NSCLC. Also, the GI50 with SN12C renal is 4.97 µM; in the test with UO-31 renal, 2.09 µM; in the test with ACHN renal, 3.92 µM; in the test on HCT-116 colon, 3.3 µM. Moreover, the TGI with NCI-H23 lung amounted to 24 µM; in the test with SK-MEL-2 melanoma, 9.09 µM; with SR leukemia it was 6.05 µM; with SK-MEL-28 melanoma, 4.22 µM; with SNB-75 CNS, 20.7 µM; with HOP-92 NSCLC it was 6.43 µM. The TGI with SN12C renal is 18 µM; in the test with UO-31 renal it was 5.93 µM; in the test with ACHN renal, 13.6 µM; with HCT-116 colon it was 12.1 µM.
As for `NC(=O)N/N=C(/Cc1nc2ccc(C(=O)c3ccccc3)cc2[nH]c1=O)C(=O)Nc1ccc(C(F)(F)F)cc1[N+](=O)[O-]`, the TGI with NCI-H23 lung is more than 100 µM; in the test with SK-MEL-2 melanoma it was more than 100 µM; in the test with SR leukemia it was more than 100 µM; with SK-MEL-28 melanoma, more than 100 µM; in the test with SNB-75 CNS it was 97.3 µM; in the test with HOP-92 NSCLC, more than 100 µM. Further, the TGI in the test with SN12C renal, in the test with UO-31 renal, in the test with ACHN renal and in the test on HCT-116 colon was more than 100 µM in each case.
On to `NC(N)=Nc1nc2ccc([N+](=O)[O-])cc2[nH]1`, for which the TGI with NCI-H23 lung, in the test with SK-MEL-2 melanoma, in the test with SR leukemia, in the test on SK-MEL-28 melanoma, in the test with SNB-75 CNS and in the test on HOP-92 NSCLC was more than 100 µM throughout. The TGI in the test on SN12C renal, in the test on UO-31 renal, in the test with ACHN renal and with HCT-116 colon was more than 100 µM throughout.
Regarding `Oc1ccc(CCNCc2cc3c(cc2Br)OCO3)cc1`, the TGI in the test with NCI-H23 lung was more than 100 µM; in the test with SK-MEL-2 melanoma, 74.6 µM; in the test with SR leukemia, more than 100 µM; in the test with SK-MEL-28 melanoma it was 98.2 µM; with SNB-75 CNS, 84.8 µM; in the test with HOP-92 NSCLC, more than 100 µM. Moreover, the TGI in the test with SN12C renal, in the test on UO-31 renal, in the test with ACHN renal and with HCT-116 colon was more than 100 µM in each case.
On to `O=S1(=O)CS(=O)(=O)OCCO1`, for which the TGI with NCI-H23 lung was > 81.5 µM and 113 µM; in the test with SK-MEL-2 melanoma, 119 µM; with SK-MEL-28 melanoma, 300 µM; with SNB-75 CNS, 57.2 µM; with HOP-92 NSCLC it was 112 µM; in the test on SN12C renal, 335 µM. For the same compound, the TGI was 134 µM with UO-31 renal, 56.5 µM with ACHN renal and 85.3 µM in the test with HCT-116 colon. Besides, the GI50 in the test on SR leukemia is 1.15 µM; with SK-MEL-28 melanoma it was more than 93.9 µM; in the test on SNB-75 CNS, 56.9 µM; in the test with HOP-92 NSCLC, more than 49.7 µM; with ACHN renal it was 36.3 µM; in the test on HCT-116 colon, more than 74.6 µM.
Regarding `CC(CNCCCNCCNCCCNCO)[N+](=O)[O-]` (configuration not stated), the TGI was found to be 28.6 µM in the test with NCI-H23 lung; 29.4 µM in the test on SK-MEL-2 melanoma; 28.4 µM with SR leukemia; 26.6 µM in the test on SK-MEL-28 melanoma; 35.3 µM in the test with SNB-75 CNS; 8.57 µM in the test on HOP-92 NSCLC. Further, the TGI with SN12C renal came to 28.4 µM; in the test with UO-31 renal it was 32.3 µM; in the test with ACHN renal, 30.3 µM; in the test on HCT-116 colon, 22.7 µM.
As to `CCCCN(CCCC)CCC(O)c1cc2c(Cl)cc(Cl)cc2c2cc(C(F)(F)F)ccc12` (configuration not stated), the TGI in the test on NCI-H23 lung was found to be 30.6 µM; with SK-MEL-2 melanoma, 30.2 µM; in the test with SR leukemia it was 28.9 µM; in the test with SK-MEL-28 melanoma, 33.1 µM; in the test with SNB-75 CNS, 25.3 µM; in the test with HOP-92 NSCLC it was 10.6 µM. Also, the TGI in the test on SN12C renal came to 20 µM; with UO-31 renal, 17.4 µM; with ACHN renal, 25.6 µM; in the test with HCT-116 colon, 25.2 µM.
Take `C/C(=N\NC(=S)N1CC2CCC(CC2)C1)c1cccc(C)n1`: the TGI with NCI-H23 lung is 19.4 µM; in the test on SK-MEL-2 melanoma it was 21.4 µM; in the test on SR leukemia it was more than 32.9 µM; with SK-MEL-28 melanoma, 17.7 µM; in the test with SNB-75 CNS, 13.1 µM; with HOP-92 NSCLC, 16.4 µM. Also, the TGI amounted to 12.6 µM in the test with SN12C renal, 4.94 µM in the test on UO-31 renal, 5.33 µM in the test on ACHN renal and 2.78 µM with HCT-116 colon. The GI50 in the test on SR leukemia is 0.21 µM; with SN12C renal, 0.774 µM.
For `Cc1[nH]c(-c2nc3ccccc3[nH]2)c(C)c1C(=O)NC(C)C1CCCCC1` (configuration not stated), the GI50 in the test with NCI-H23 lung was 12.6 µM; with SK-MEL-2 melanoma, 10.1 µM; in the test on SR leukemia, 4.38 µM; in the test with SK-MEL-28 melanoma, 10.4 µM; with SNB-75 CNS, 3.62 µM; in the test on HOP-92 NSCLC it was 10.2 µM. For the same compound, the GI50 with SN12C renal was 10.5 µM; in the test on UO-31 renal, 11.9 µM; with ACHN renal it was 14.4 µM; in the test on HCT-116 colon, 10.1 µM. Besides, the TGI turned out to be 31.5 µM in the test with NCI-H23 lung; 25.5 µM with SK-MEL-2 melanoma; 34.5 µM with SR leukemia; 23.5 µM in the test with SK-MEL-28 melanoma; 16.4 µM in the test with SNB-75 CNS; 25.3 µM with HOP-92 NSCLC. In addition, the TGI with SN12C renal amounted to 26 µM; with UO-31 renal, 25.6 µM; in the test on ACHN renal, 30.2 µM; in the test with HCT-116 colon, 24.2 µM.
As for `CCCCNC(=O)c1cc(NCc2cc(O)ccc2O)ccc1O`, the GI50 was 17.1 µM in the test with NCI-H23 lung; 22.8 µM in the test with SK-MEL-2 melanoma; 5.35 µM with SR leukemia; 16.3 µM in the test on SK-MEL-28 melanoma; 18.5 µM in the test on SNB-75 CNS; 6.81 µM in the test with HOP-92 NSCLC. Further, the GI50 in the test with SN12C renal is 13.6 µM; with UO-31 renal, 2.82 µM; in the test with ACHN renal it was 10.8 µM; with HCT-116 colon, 18.8 µM. Moreover, the TGI with NCI-H23 lung is 40.5 µM; with SK-MEL-2 melanoma it was 65 µM; in the test with SR leukemia, more than 100 µM; in the test with SK-MEL-28 melanoma it was 30.3 µM; in the test on SNB-75 CNS it was more than 100 µM; with HOP-92 NSCLC, 21.7 µM. Also, the TGI was found to be 29.5 µM in the test with SN12C renal, 12.1 µM with UO-31 renal, 22.7 µM with ACHN renal and 37.5 µM in the test on HCT-116 colon.
In the case of `CC1=C(Cl)C=CP(=O)(OC(C)C)C1` (configuration not stated), the TGI with NCI-H23 lung was more than 100 µM; in the test with SK-MEL-2 melanoma it was more than 100 µM; in the test with SR leukemia, more than 100 µM; in the test on SK-MEL-28 melanoma, more than 100 µM; with SNB-75 CNS it was 47.3 µM; in the test with HOP-92 NSCLC, more than 100 µM. Besides, the TGI in the test on SN12C renal, with UO-31 renal, with ACHN renal and in the test on HCT-116 colon was more than 100 µM each time.
